test system: NL-RLuc virus; experiment: Inhibition of HIV replication (NL-RLuc virus, luciferase readout in MT-2 cells); type: cell-based; settings: Human immunodeficiency virus 1, MT2, 120 h, MT-2 cells infected with NL-RLuc virus, 5 days of incubation, 10% FBS, at least 2 experiments
Procedure, shortened: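 MT-2 cells infected with NL4-3-derived virus carrying Renilla luciferase in place of part of nef, grown 5 days with serial compound dilutions in RPMI 1640/10% FBS. Virus growth read as luciferase expression. EC50 from median effect equation, at least 2 experiments.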

Row | SMILES | EC50
1 | Cc1ncc(-c2ccc(CNc3ncnc4c3oc3ccccc34)cc2)c(N2CCC(C)(C)CC2)c1[C@H](OC(C)(C)C)C(=O)O [Example 21, (2S)-2-(tert-Butoxy)-2-[4-(4,4-dimethylpiperidin-1-yl)-2-methyl-5-{4-[({8-oxa-3,5-diazatricyclo[7.4.0.0^2,7]trideca-1(9), 2(7), 3,5,10, 12-hexaen-6-yl}amino)methyl]phenyl}pyridin-3-yl]acetic acid] | 2 nM
2 | CCOc1ccc(-c2cnc(C)c([C@H](OC(C)(C)C)C(=O)O)c2N2CCC(C)(C)CC2)cn1 [Example 112, (S)-2-(tert-Butoxy)-2-(4-(4,4-dimethylpiperidin-1-yl)-6′-ethoxy-6-methyl-[3, 3′-bipyridin]-5-yl)acetic acid] | 5 nM
3 | Cc1ncc(-c2ccc(OCC(C)C)c(C(F)(F)F)n2)c(N2CCC(C)(C)CC2)c1[C@H](OC(C)(C)C)C(=O)O [Example 275, (S)-2-(tert-Butoxy)-2-(4′-(4,4-dimethylpiperidin-1-yl)-5-isobutoxy-6′-methyl-6-(trifluoromethyl)-[2, 3′-bipyridin]-5′-yl)acetic acid] | 8 nM
4 | CC1(C)CCN(c2c(-c3ccc(OCCc4ccc(F)cc4)cc3)c(N)nc(Cl)c2[C@H](OC(C)(C)C)C(=O)O)CC1 [Example 206, (S)-2-(6-Amino-2-chloro-4-(4,4-dimethylpiperidin-1-yl)-5-(4-(4-fluorophenethoxy)phenyl)pyridin-3-yl)-2-(tert-butoxy)acetic acid] | 2 nM
5 | Cc1ncc(-c2cc(F)ccc2F)c(N2CCC(C)(C)CC2)c1[C@H](OC(C)(C)C)C(=O)O [Example 130, (2S)-2-(tert-Butoxy)-2-[5-(2,5-difluorophenyl)-4-(4,4-dimethylpiperidin-1-yl)-2-methylpyridin-3-yl]acetic acid] | 13 nM
6 | Cc1ncc(-c2ccc(OCCc3ccc(F)cc3)cc2F)c(N2CCC(C)(C)CC2)c1[C@H](OC(C)(C)C)C(=O)O [Example 123, (S)-2-(tert-Butoxy)-2-(4-(4,4-dimethylpiperidin-1-yl)-5-(2-fluoro-4-(4-fluorophenethoxy)phenyl)-2-methylpyridin-3-yl)acetic acid] | 2 nM
7 | Cc1ncc(-c2ccc3c(c2)OCO3)c(N2CCC(C)(C)CC2)c1[C@H](OC(C)(C)C)C(=O)O [Example 180, (2S)-2-[5-(2H-1,3-Benzodioxol-5-yl)-4-(4,4-dimethylpiperidin-1-yl)-2-methylpyridin-3-yl]-2-(tert-butoxy)acetic acid] | 3 nM
8 | COc1ccc(-c2cnc(C)c([C@H](OC(C)(C)C)C(=O)O)c2N2CCC(C)(C)CC2)nn1 [Example 15, (S)-2-(tert-Butoxy)-2-(4-(4,4-dimethylpiperidin-1-yl)-5-(6-methoxypyridazin-3-yl)-2-methylpyridin-3-yl)acetic acid] | 16 nM
9 | Cc1nc(NCCC2CCN(C)CC2)c(-c2ccc(OCCc3ccc(F)cc3)cc2)c(N2CCC(C)(C)CC2)c1[C@H](OC(C)(C)C)C(=O)O [Example 31, (S)-2-(tert-Butoxy)-2-(4-(4,4-dimethylpiperidin-1-yl)-5-(4-(4-fluorophenethoxy)phenyl)-2-methyl-6-((2-(1-methylpiperidin-4-yl)ethyl)amino)pyridin-3-yl)acetic acid] | 0.8 nM
10 | COc1ccc(CCOc2ccc(-c3cnc(C)c([C@H](OC(C)(C)C)C(=O)O)c3N3CCC(C)(C)CC3)nc2)cc1F [Example 330, (2S)-2-(tert-butoxy)-2-[4′-(4,4-dimethylpiperidin-1-yl)-5-[2-(3-fluoro-4-methoxyphenyl)ethoxy]-6′-methyl-[2,3′-bipyridine]-5′-yl]acetic acid] | 0.4 nM
11 | Cc1ncc(-c2cnc(OCCc3cc(F)cc(F)c3)c(F)c2)c(N2CCC(C)(C)CC2)c1[C@H](OC(C)(C)C)C(=O)O [Example 390, (2S)-2-(tert-butoxy)-2-{6′-[2-(3,5-difluorophenyl)ethoxy]-4-(4,4-dimethylpiperidin-1-yl)-5′-fluoro-6-methyl-[3,3′-bipyridine]-5-yl}acetic acid] | 2 nM
12 | COc1c(F)cc(-c2c(CO)nc(Cl)c([C@H](OC(C)(C)C)C(=O)O)c2N2CCC(C)(C)CC2)cc1F [Example 205, (S)-2-(tert-Butoxy)-2-(2-chloro-5-(3,5-difluoro-4-methoxyphenyl)-4-(4,4-dimethylpiperidin-1-yl)-6-(hydroxymethyl)pyridin-3-yl)acetic acid] | 6 nM
13 | Cc1cccc(-c2cnc(C)c([C@H](OC(C)(C)C)C(=O)O)c2N2CCC(C)(C)CC2)c1 [Example 177, (2S)-2-(tert-Butoxy)-2-[4-(4,4-dimethylpiperidin-1-yl)-2-methyl-5-(3-methylphenyl)pyridin-3-yl]acetic acid] | 12 nM
14 | COc1ccc(F)c(-c2cnc(C)c([C@H](OC(C)(C)C)C(=O)O)c2N2CCC(C)(C)CC2)c1 [Example 150, (2S)-2-(tert-Butoxy)-2-[4-(4,4-dimethylpiperidin-1-yl)-5-(2-fluoro-5-methoxyphenyl)-2-methylpyridin-3-yl]acetic acid] | 12 nM
15 | Cc1ncc(-c2ccc(C(F)(F)CC(C)C)cn2)c(N2CCC(C)(C)CC2)c1[C@H](OC(C)(C)C)C(=O)O [Example 274, (S)-2-(tert-Butoxy)-2-(5-(1,1-difluoro-3-methylbutyl)-4′-(4,4-dimethylpiperidin-1-yl)-6′-methyl-[2, 3′-bipyridin]-5′-yl)acetic acid] | 16 nM
16 | Cc1ncc(-c2ccc(CCC(C)C)nc2)c(N2CCC(C)(C)CC2)c1[C@H](OC(C)(C)C)C(=O)O [Example 420, (S)-2-(tert-Butoxy)-2-(4-(4,4-dimethylpiperidin-1-yl)-6′-isopentyl-6-methyl-[3, 3′-bipyridin]-5-yl)acetic acid] | 13 nM
17 | Cc1ncc(-c2ccc(OCCc3ccc(F)cc3F)cn2)c(N2CCC(C)(C)CC2)c1[C@H](OC(C)(C)C)C(=O)O [Example 306, (2S)-2-(tert-butoxy)-2-{5-[2-(2,4-difluorophenyl)ethoxy]-4′-(4,4-dimethylpiperidin-1-yl)-6′-methyl-[2,3′-bipyridine]-5′-yl}acetic acid] | 0.6 nM
18 | CC1(C)CCN(c2c(-c3ccccn3)cnc(Cl)c2[C@H](OC(C)(C)C)C(=O)O)CC1 [Example 223, (2S)-2-(tert-Butoxy)-2-[6′-chloro-4′-(4,4-dimethylpiperidin-1-yl)-[2, 3′-bipyridine]-5′-yl]acetic acid] | 15 nM
19 | Cc1ncc(-c2ccc(OCCc3c(F)cccc3F)cn2)c(N2CCC(C)(C)CC2)c1[C@H](OC(C)(C)C)C(=O)O [Example 327, (2S)-2-(tert-butoxy)-2-{5-[2-(2,6-difluorophenyl)ethoxy]-4′-(4,4-dimethylpiperidin-1-yl)-6′-methyl-[2,3′-bipyridine]-5′-yl}acetic acid] | 5 nM
20 | Cc1ccc(CCOc2ccc(-c3cnc(C)c([C@H](OC(C)(C)C)C(=O)O)c3N3CCC(C)(C)CC3)nc2)cc1F [Example 332, (2S)-2-(tert-butoxy)-2-[4′-(4,4-dimethylpiperidin-1-yl)-5-[2-(3-fluoro-4-methylphenyl)ethoxy]-6′-methyl-[2,3′-bipyridine]-5′-yl]acetic acid] | 0.5 nM
21 | Cc1ncc(-c2ccc(O)cn2)c(N2CCC(C)(C)CC2)c1[C@H](OC(C)(C)C)C(=O)O [Example 287, (S)-2-(tert-Butoxy)-2-(4′-(4,4-dimethylpiperidin-1-yl)-5-hydroxy-6′-methyl-[2, 3′-bipyridin]-5′-yl)acetic acid] | 379 nM
22 | CC1(C)CCN(c2c(-c3ccc(OCCc4ccc(F)cc4)c(F)c3)c(CN3CCC4(CCC4)CC3)nc(Cl)c2[C@H](OC(C)(C)C)C(=O)O)CC1 [Example 210, (S)-2-(6-((7-Azaspiro[3.5]nonan-7-yl)methyl)-2-chloro-4-(4,4-dimethylpiperidin-1-yl)-5-(3-fluoro-4-(4-fluorophenethoxy)phenyl)pyridin-3-yl)-2-(tert-butoxy)acetic acid] | 2 nM
23 | Cc1ncc(-c2cnc(NCC(C)C)c(F)c2)c(N2CCC(C)(C)CC2)c1[C@H](OC(C)(C)C)C(=O)O [Example 415, (S)-2-(tert-Butoxy)-2-(4-(4,4-dimethylpiperidin-1-yl)-5′-fluoro-6′-(isobutylamino)-6-methyl-[3, 3′-bipyridin]-5-yl)acetic acid] | 2 nM
24 | CN(Cc1ccc(-c2cnc(Cl)c([C@H](OC(C)(C)C)C(=O)O)c2N2CCC(C)(C)CC2)cc1)c1ncnc2c1oc1ccccc12 [Example 220, (S)-2-(5-(4-((Benzofuro[3,2-d]pyrimidin-4-yl(methyl)amino)methyl)phenyl)-2-chloro-4-(4,4-dimethylpiperidin-1-yl)pyridin-3-yl)-2-(tert-butoxy)acetic acid] | 2 nM
25 | Cc1nc(-c2cnn(C)c2C)c(-c2ccc(OCCc3ccc(F)cc3)cc2)c(N2CCC(C)(C)CC2)c1[C@H](OC(C)(C)C)C(=O)O [Example 49, (S)-2-(tert-Butoxy)-2-(6-(1,5-dimethyl-1H-pyrazol-4-yl)-4-(4,4-dimethylpiperidin-1-yl)-5-(4-(4-fluorophenethoxy)phenyl)-2-methylpyridin-3-yl)acetic acid] | 0.7 nM
26 | Cc1nc(-c2cn[nH]c2)c(-c2ccc(OCCc3ccc(F)cc3)cc2)c(N2CCC(C)(C)CC2)c1[C@H](OC(C)(C)C)C(=O)O [Example 51, (S)-2-(tert-Butoxy)-2-(4-(4,4-dimethylpiperidin-1-yl)-5-(4-(4-fluorophenethoxy)phenyl)-2-methyl-6-(1H-pyrazol-4-yl)pyridin-3-yl)acetic acid] | 5 nM
27 | Cc1ncc(-c2cnc(OCCc3ccccc3F)c(Cl)c2)c(N2CCC(C)(C)CC2)c1[C@H](OC(C)(C)C)C(=O)O [Example 252, (S)-2-(tert-Butoxy)-2-(5′-chloro-4-(4,4-dimethylpiperidin-1-yl)-6′-(2-fluorophenethoxy)-6-methyl-[3, 3′-bipyridin]-5-yl)acetic acid] | 1 nM

Source: US20200055839A1 (priority 2017, published 2020)
